pKi: −log10 of the molar value.
Molecular target: hMC2 receptor (Homo sapiens, UniProt Q01718)
Test: hMC2 membrane binding assay ([125I]ACTH (1-39) Tyr23, SPA)
Parameters: scale not given here
Settings: crude hMC2R membranes from CRE-bla-CHO-K1 cells expressing hMC2 receptor and hMRAP; [125I]ACTH (1-39) Tyr23 0.2 nM; 1.5 hours at room temperature; read-out: MC2R binding potency
Protocol: Crude membrane fractions are prepared from CRE-bla-CHO-K1 cells stably expressing hMC2 receptor and hMRAP accessory protein (Thermo Fisher). The cells are grown to 85-100% confluence on standard tissue culture dishes in GlutaMax DMEM growth media (Gibco) with following additives: 10% dialyzed FBS (Gemini), 0.1 mM NEAA (Gibco), 25 mM HEPES (Gibco), 5 μg/mL blasticidin (Goldbio), 100 μg/mL zeocin (Invitrogen), 600 μg/mL hygromycin (Goldbio). To prepare membranes, cells are scraped and collected in 1× Dulbecco's phosphate buffered saline (Corning) and then pelleted at 1000 RPM's. The cell pellet is reconstituted in membrane preparation buffer (20 mM HEPES, 6 mM MgCl2 and 1 mM EGTA, protease inhibitor tablets (Pierce) adjusted to pH 7.4), homogenized using a dounce homogenizer, and the resulting membrane fraction is pelleted by centrifugation at 12,000 RPM's. The membrane pellet is resuspended in membrane preparation buffer, snap freezed and stored at −80° C. for later use.
Binding Assay for hMC2 Antagonists Protocol:
The hMC2 membrane binding assay utilizes the following components: radiolabel [^125I]ACTH (1-39) Tyr23 (PerkinElmer), wheatgerm agglutinin coated PVT SPA beads (PerkinElmer), crude hMC2R membranes, and compounds. Briefly hMC2R membranes are incubated with SPA beads in binding assay buffer (50 mM HEPES, 5 mM MgCl2, 1 mM CaCl2, 0.2% BSA, protease inhibitor tablets (Pierce) adjusted to pH7.4) prior to assay initiation. A dose response of compound (the final concentration of compound are typically 0-10,000 nM), SPA membranes, and [^125I]ACTH (1-39) Tyr23 at a final concentration of 0.2 nM is plated in a 96-well assay plate and allowed to incubate 1.5 hours at room temperature. Assay plates are read using a Top Count NXT and Ki values for compounds are determined using a GraphPad Prism 6 non-linear regression analysis.

Chain of hMC2 receptor (Q01718 whole entry): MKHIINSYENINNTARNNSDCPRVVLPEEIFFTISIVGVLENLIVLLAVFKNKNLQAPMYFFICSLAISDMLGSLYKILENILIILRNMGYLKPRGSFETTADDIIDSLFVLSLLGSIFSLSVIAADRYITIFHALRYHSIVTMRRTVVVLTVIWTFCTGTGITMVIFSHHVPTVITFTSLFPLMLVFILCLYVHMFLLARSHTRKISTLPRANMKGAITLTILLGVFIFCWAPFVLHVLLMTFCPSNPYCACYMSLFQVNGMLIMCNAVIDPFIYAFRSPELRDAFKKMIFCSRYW
Chain of hMC2 receptor (Q8TCY5 whole entry partner): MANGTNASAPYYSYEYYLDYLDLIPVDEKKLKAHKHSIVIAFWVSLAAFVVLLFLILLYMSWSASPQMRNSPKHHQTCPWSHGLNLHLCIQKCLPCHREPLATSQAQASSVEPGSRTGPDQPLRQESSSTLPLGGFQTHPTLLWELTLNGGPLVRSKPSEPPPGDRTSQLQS

pKi | SMILES
> 8.00 | CCOc1ncccc1-c1ccc(N2CCN(C(=O)C3(C(F)(F)F)CCCC3)C[C@H]2CC)c(C(=O)NCCN2CCC2)n1 [Compound 1-337, N-[2-(azetidin-1-yl)ethyl]-2′-ethoxy-5-[(2R)-2-ethyl-4-[1-(trifluoromethyl)cyclopentanecarbonyl]piperazin-1-yl]-[2,3′-bipyridine]-6-carboxamide]
> 8.00 | CCOc1ncccc1-c1ccc(N2CCN(C(=O)c3ccc(Cl)cc3C(F)(F)F)C[C@H]2CC)c(C(=O)NCCC2=NCCN2)c1F [Compound 1-219, 6-[(2R)-4-[4-chloro-2-(trifluoromethyl)benzoyl]-2-ethylpiperazin-1-yl]-N-[2-(4,5-dihydro-1H-imidazol-2-yl)ethyl]-3-(2-ethoxypyridin-3-yl)-2-fluorobenzamide]
> 8.00 | CCOc1ncccc1-c1ccc(N2CCN(C(=O)c3ccc(Cl)cc3C#N)C[C@H]2CC)c(C(=O)N[C@@H]2CCNC2)n1 [Compound 1-277, 5-[(2R)-4-(4-chloro-2-cyanobenzoyl)-2-ethylpiperazin-1-yl]-2′-ethoxy-N-[(3R)-pyrrolidin-3-yl]-[2,3′-bipyridine]-6-carboxamide]
> 8.00 | CCOc1ncccc1-c1ccc(N2CCN(C(=O)c3ccc(Cl)cc3C(F)F)C[C@H]2CC)c(C(=O)NCCN(C)C)n1 [Compound 1-210, 5-[(2R)-4-[4-chloro-2-(difluoromethyl)benzoyl]-2-ethylpiperazin-1-yl]-N-[2-(dimethylamino)ethyl]-2′-ethoxy-[2,3′-bipyridine]-6-carboxamide]
> 8.00 | CCOc1ncccc1-c1ccc(N2CCN(C(=O)N3CCC[C@H]3C(F)(F)F)C[C@H]2CC)c(C(=O)N[C@@H]2CCNC2)n1 [Compound 1-306, 2′-ethoxy-5-[(2R)-2-ethyl-4-[(2S)-2-(trifluoromethyl)pyrrolidine-1-carbonyl]piperazin-1-yl]-N-[(3R)-pyrrolidin-3-yl]-[2,3′-bipyridine]-6-carboxamide]

Second part, the compound before the results:

SMILES | pKi
CCOc1ncccc1-c1ccc(N2CCN(C(=O)C3(C(F)(F)F)CCCC3)C[C@H]2CC)c(C(=O)NC[C@@H]2CCCN2C)n1 [Compound 1-332, 2′-ethoxy-5-[(2R)-2-ethyl-4-[1-(trifluoromethyl)cyclopentanecarbonyl]piperazin-1-yl]-N-{[(2S)-1-methylpyrrolidin-2-yl]methyl}-[2,3′-bipyridine]-6-carboxamide] | > 8.00
CCOc1ncccc1-c1ccc(N2CCN(C(=O)C34CCC(C(F)(F)F)(CC3)C4)C[C@H]2CC)c(C(=O)NC2CN(C)C2)n1 [Compound 1-394, 2′-ethoxy-5-[(2R)-2-ethyl-4-[4-(trifluoromethyl)bicyclo[2.2.1]heptane-1-carbonyl]piperazin-1-yl]-N-(1-methylazetidin-3-yl)-[2,3′-bipyridine]-6-carboxamide] | > 8.00
CCOc1ncccc1-c1ccc(N2CCN(C(=O)c3ccc(Cl)cc3C(F)(F)F)C[C@H]2CC)c(C(=O)N[C@H]2CCN(C)C2)c1F [Compound 1-201, 6-[(2R)-4-[4-chloro-2-(trifluoromethyl)benzoyl]-2-ethylpiperazin-1-yl]-3-(2-ethoxypyridin-3-yl)-2-fluoro-N-[(3S)-1-methylpyrrolidin-3-yl]benzamide] | > 8.00
CC[C@@H]1CN(C(=O)c2ccc(C(F)(F)F)cc2Cl)CCN1c1ccc(-c2ccccc2C(=O)OC)cc1C(=O)NCCN [Compound 1-19, methyl (R)-3′-((2-aminoethyl)carbamoyl)-4′-(4-(2-chloro-4-(trifluoromethyl)benzoyl)-2-ethylpiperazin-1-yl)-[1,1′-biphenyl]-2-carboxylate] | 7.00 to 8.00
CCOc1ncccc1-c1ccc(N2CCN(C(=O)C3(C(F)(F)F)CCC3)C[C@H]2CC)c(C(=O)N[C@@H]2CCNC2)n1 [Compound 1-280, 2′-ethoxy-5-[(2R)-2-ethyl-4-[1-(trifluoromethyl)cyclobutanecarbonyl]piperazin-1-yl]-N-[(3R)-pyrrolidin-3-yl]-[2,3′-bipyridine]-6-carboxamide] | > 8.00

Source: patent US10981894B2, “Melanocortin subtype-2 receptor (MC2R) antagonists and uses thereof” (Crinetics Pharmaceuticals, Inc., priority 2018, dated 2021)
